Experimental findings from US11939307B2, “Phenylmethyl-piperazine derivatives and antiviral uses thereof” (INSTITUTE OF MEDICINAL BIOTECHNOLOGY, CHINESE ACADEMY OF …, priority 2019, dated 2024) are described below.

Where only a bound is given, the exact number is not on record here.

The assay has as its system HCV. The experiment in a line: Assay of anti-HCV activity in HCV-infected Huh7.5 cells (intracellular HCV RNA by one-step quantitative RT-PCR). Conditions: Hepatitis C virus; compound at 1 μM; Huh7.5 cells infected with HCV; 96 hrs; intracellular HCV RNA vs viral control; read-out: inhibitory activities (inhibitory levels of the compounds against HCV replication). Format: cell-based. In outline:
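Huh7.5 cells were infected with HCV particles while compounds were added at 1 μM, then incubated 96 h at 37 °C, 5% CO2. Intracellular HCV RNA was quantified by one-step qRT-PCR, and inhibition was calculated relative to the viral control.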
Regarding `CN1CCCN(c2ccc(C#N)c(CN3CCN(C(c4ccncc4)c4ccc(Cl)cc4)CC3)c2)CC1` (stereo not shown) [Compound 89, 2-((4-((4-chlorophenyl)(pyridin-4-yl)methyl)piperazin-1-yl)methyl)-4-(4-methyl-1,4-diazepan-1-yl)benzonitrile], the inhibition at 1 µM was > 75%.
Take `FC(F)(F)c1ccc(N2CCC(N3CCCC3)CC2)cc1CN1CCN(c2ccc(Cl)cc2)CC1` [Compound 28, 1-(4-chlorophenyl)-4-(5-(4-(pyrrolidin-1-yl)piperidin-1-yl)-2-(trifluoromethyl)benzyl)piperazine]: the inhibition at 1 µM is > 75%.
With `CCN(CC)CCN(C)c1ccc(C#N)c(CN2CCN(Cc3ccc(F)c(Cl)c3)CC2)c1` [Compound 17, 2-((4-(3-chloro-4-fluorobenzyl)piperazin-1-yl)methyl)-4-((2-(diethylamino)ethyl)(methyl)amino)benzonitrile] the figure was > 75%; with `CN1CCC(N(C)c2ccc(C(F)(F)F)c(CN3CCN(c4ccc(Cl)cc4)CC3)c2)C1` (stereo not shown) [Compound 92], > 75%.
`CN(C)C1CCCN(c2ccc(C(F)(F)F)c(CN3CCN(C(c4ccc(Cl)cc4)c4ccc(Cl)cc4)CC3)c2)C1` (stereo not shown) [Compound 67, 1-(3-((4-(bis(4-chlorophenyl)methyl)piperazin-1-yl)methyl)-4-(trifluoromethyl)phenyl)-N,N-dimethylpiperidin-3-amine]: the inhibition at 1 µM is > 75%.
With `CCN1CCN(c2ccc(C#N)c(CN3CCN(Cc4ccc(Cl)c(C)c4)CC3)c2)CC1` [Compound 11, 2-((4-(4-chloro-3-methylbenzyl)piperazin-1-yl)methyl)-4-(4-ethylpiperazin-1-yl)benzonitrile] the figure was 50 to 75%; with `CN(C)CCN(C)c1ccc(C(F)(F)F)c(CN2CCN(C(c3ccc(Cl)cc3)c3ccc(Cl)cc3)CC2)c1` [Compound 52, N^1-(3-((4-(bis(4-chlorophenyl)methyl)piperazin-1-yl)methyl)-4-(trifluoromethyl)phenyl)-N^1,N^2,N^2-trimethylethan-1,2-diamine], > 75%.
With `CC(C)C(c1ccc(Cl)cc1)N1CCN(Cc2cc(N(C)CCN3CCCC3)ccc2C#N)CC1` (stereo not shown) [Compound 16, 2-((4-(1-(4-chlorophenyl)-2-methylpropyl)piperazin-1-yl)methyl)-4-(methyl(2-(pyrrolidin-1-yl)ethyl)amino)benzonitrile] the figure was > 75%; with `CN(C)CCN(C)c1ccc(C(F)(F)F)c(CN2CCC(C(c3ccc(Br)cc3)c3ccc(Br)cc3)CC2)c1` [Compound 73, N^1-(3-((4-(bis(4-bromophenyl)methyl)piperidin-1-yl)methyl)-4-(trifluoromethyl)phenyl)-N^1,N^2,N^2-trimethylethan-1,2-diamine], > 75%; with `CC1CN(c2ccc(Cl)cc2)CCN1Cc1cc(N2CCCN(C)CC2)ccc1C(F)(F)F` (stereo not shown) [Compound 22, 1-(3-((4-(4-chlorophenyl)-2-methylpiperazin-1-yl)methyl)-4-(trifluoromethyl)phenyl)-4-methyl-1,4-diazepane], > 75%.
With `CN(C)CCN(C)c1ccc(C#N)c(CN2CCN(C(c3ccncc3)c3ccncc3)CC2)c1` [Compound 79, 2-((4-(di(pyridin-4-yl)methyl)piperazin-1-yl)methyl)-4-((2-(dimethylamino)ethyl)(methyl)amino)benzonitrile] the figure was 50 to 75%; with `CN(CCN1CCCC1)c1ccc(C(F)(F)F)c(CN2CCN(C(c3ccc(Cl)cc3)c3ccc(Cl)cc3)CC2)c1` [Compound 63, 3-((4-(bis(4-chlorophenyl)methyl)piperazin-1-yl)methyl)-N-methyl-N-(2-(pyrrolidin-1-yl)ethyl)-4-(trifluoromethyl)aniline], > 75%; with `CCCN(CCN(C)C)c1ccc(C(F)(F)F)c(CN2CCN(C(c3ccc(Cl)cc3)c3ccc(Cl)cc3)CC2)c1` [Compound 59, N^1-(3-((4-(bis(4-chlorophenyl)methyl)piperazin-1-yl)methyl)-4-(trifluoromethyl)phenyl)-N^2,N^2-dimethyl-N^1-propylethan-1,2-diamine], > 75%.
On to `CCN1CCCN(c2ccc(C(F)(F)F)c(CN3CCN(c4ccc(C)c(Cl)c4)CC3)c2)CC1` [Compound 35, 1-(3-((4-(3-chloro-4-methylphenyl)piperazin-1-yl)methyl)-4-(trifluoromethyl)phenyl)-4-ethyl-1,4-diazepane], for which the inhibition at 1 µM is > 75%.
With `CN1CCCN(c2ccc(C(F)(F)F)c(CN3CCN(c4ccc(F)cc4)CC3)c2)CC1` [Compound 36, 1-(3-((4-(4-fluorophenyl)piperazin-1-yl)methyl)-4-(trifluoromethyl)phenyl)-4-methyl-1,4-diazepane] the figure was > 75%; with `CN(C)CCN(C)c1ccc(C(F)(F)F)c(CN2CCN(c3ccc(Br)c(Cl)c3)CC2)c1` [Compound 26, N^1-(3-((4-(4-bromo-3-chlorophenyl)piperazin-1-yl)methyl)-4-(trifluoromethyl)phenyl)-N^1,N^2,N^2-trimethylethan-1,2-diamine], > 75%; with `CN(C)CCN(C)c1ccc(C(F)(F)F)c(CN2CCN(C(c3ccccc3)c3ccc(Cl)cc3)CC2)c1` (stereo not shown) [Compound 54, N^1-(3-((4-((4-chlorophenyl)(phenyl)methyl)piperazin-1-yl)methyl)-4-(trifluoromethyl)phenyl)-N^1,N^2,N^2-trimethylethan-1,2-diamine], > 75%.
With `CN(CCN1CCCC1)c1ccc(C(F)(F)F)c(CN2CCN(C(c3ccc(C(F)(F)F)cc3)c3ccc(C(F)(F)F)cc3)CC2)c1` [Compound 103, 3-([4-{bis[4-(trifluoromethyl)phenyl]methyl}piperazin-1-yl]methyl)-N-methyl-N-[2-(pyrrolidin-1-yl)ethyl]-4-(trifluoromethyl)aniline] the figure was > 75%.
With `COc1ccc(C(c2ccc(OC)cc2)N2CCN(Cc3cc(N4CCCN(C)CC4)ccc3C#N)CC2)cc1` [Compound 75, 2-((4-(bis(4-methoxyphenyl)methyl)piperazin-1-yl)methyl)-4-(4-methyl-1,4-diazepan-1-yl)benzonitrile] the figure was > 75%; with `CN(C)CCN(C)c1ccc(C(F)(F)F)c(CN2CCC(C(c3ccc(Cl)cc3)c3ccc(Cl)cc3)CC2)c1` [Compound 72, N^1-(3-((4-(bis(4-chlorophenyl)methyl)piperidin-1-yl)methyl)-4-(trifluoromethyl)phenyl)-N^1,N^2,N^2-trimethylethan-1,2-diamine], > 75%; with `COc1ccc(C(c2ccc(OC)cc2)N2CCN(Cc3cc(N(C)CCN(C)C)ccc3C(F)(F)F)CC2)cc1` [Compound 58, N^1-(3-((4-(bis(4-methoxyphenyl)methyl)piperazin-1-yl)methyl)-4-(trifluoromethyl)phenyl)-N^1,N^2,N^2-trimethylethan-1,2-diamine], > 75%.
In the case of `CC(C)c1ccc(C(c2ccc(C(C)C)cc2)N2CCN(Cc3cc(N(C)CCN(C)C)ccc3C#N)CC2)cc1` [Compound 81, 2-((4-(bis(4-isopropylphenyl)methyl)piperazin-1-yl)methyl)-4-((2-(dimethylamino)ethyl)(methyl)amino)benzonitrile], the inhibition at 1 µM is > 75%.
